In patent US12509469B2, “Compositions and methods for the treatment of pain and dependence disorders” (Ripple Therapeutics Corporation, priority 2019, dated 2025):

Legend:
[1] = Drug release from heat-molded pellets in phosphate buffered saline (PBS); type: physicochemical; details: heat-molded pellet, 37° C., agitation at 115 rpm, HPLC
Protocol: (§1) Drug release from heat-molded pellets of Compound 1 (FIG. 1A) was assessed in phosphate buffered saline (PBS). Heat-molded pellets (FIG. 1B) were placed in 20 ml glass vials and 2 ml of release buffer was added. Samples were incubated at 37° C. with constant agitation at 115 rpm. Release buffer was sampled and fully replaced with 2 ml of fresh buffer daily with the exception of days 5, 6, 12, 13, and 14 (FIG. 1C). Samples were analyzed by high performance liquid chromatography (HPLC) to quantify drug products (FIG. 1D). Cumulative release was calculated as a percentage of total mass of starting pellets and was plotted over time.
as §1, with “3-7 and Compound 9-12 were” for “1 (FIG. 1A) was”, “pellets” for “pellets (FIG. 1B)”, “on” for “daily with the exception of”, “1, 3, 7, 10,” for “5, 6, 12, 13,”, “14.” for “14 (FIG. 1C).”, “products.” for “products (FIG. 1D).”

[2] = Heat processing of compounds: pellet formation by heat molding; type: physicochemical; details: for Pellet formation?: heat molding, cylindrical mold ~1 mm in height x 1 mm in diameter; for Pellet formation by heat molding (result in words): heat molding 10° C. to 30° C. above thermal transition, pressed into cylindrical mold
Protocol: Compounds were formed into pellets by heat molding. Powders of Compound 1-7 and Compounds 9-12 were processed at a temperature from between about 10° C. to 30° C. above their thermal transitions (e.g., glass transition temperature (Tg) for amorphous powders or melting point (Tm) for crystalline powders) of the given compound (e.g., from about 70° C. (Compound 9) to about 220° C. (Compound 2)), and pressed into a cylindrical mold of ˜1 mm in height×1 mm in diameter. Light microscopy was used to capture images of the heat-formed pellets.
These pellets had the appropriate processing properties to be tested as articles for drug delivery applications.
Compounds 16, 22, and 23 were also tested for pellet formation using a similar method as compounds 1-7 and 9-12. […] The recovered form was soft and tacky and could not be easily handled.

Structure (SMILES)	Release in phosphate buffered saline (PBS): near zero order for [1]	Pellet formation? [2]	Pellet formation by heat molding (result in words) [2]
C=CCN1CC[C@]23c4c5ccc(OC(=O)CCCCC(=O)Oc6ccc7c8c6O[C@H]6C(=O)CC[C@@]9(O)[C@@H](C7)N(CC=C)CC[C@]869)c4O[C@H]2C(=O)CC[C@@]3(O)[C@H]1C5 [Compound 1, bis((4R,4aS,7aR,12bS)-3-allyl-4a-hydroxy-7-oxo-2,3,4,4a,5,6,7,7a-octahydro-1H-4,12-methanobenzofuro[3,2-e]isoquinolin-9-yl) adipate]	Near zero order for > 7 days	✓ (FIG. 1B)	–
O=C(CCCCC(=O)Oc1ccc2c3c1O[C@H]1C(=O)CC[C@@]4(O)[C@@H](C2)N(CC2CC2)CC[C@]314)Oc1ccc2c3c1O[C@H]1C(=O)CC[C@@]4(O)[C@@H](C2)N(CC2CC2)CC[C@]314 [Compound 2, bis((4R,4aS,7aR,12bS)-3-(cyclopropylmethyl)-4a-hydroxy-7-oxo-2,3,4,4a,5,6,7,7a-octahydro-1H-4,12-methanobenzofuro[3,2-e]isoquinolin-9-yl) adipate]	–	–	didn't form a viscous liquid that could be pressed into a pellet
C=C1CC[C@@]2(O)[C@H]3Cc4ccc(OC(=O)CCCCC(=O)Oc5ccc6c7c5O[C@H]5C(=C)CC[C@@]8(O)[C@@H](C6)N(CC6CC6)CC[C@]758)c5c4[C@@]2(CCN3CC2CC2)[C@H]1O5 [Compound 3, bis((4R,4aS,7aS,12bS)-3-(cyclopropylmethyl)-4a-hydroxy-7-methylene-2,3,4,4a,5,6,7,7a-octohydro-1H-4,12-methanobenzofuro[3,2-e]isoquinolin-9-yl) adipate]	Near zero order for > 7 days	✓ (FIG. 4B)	–
C=CCN1CC[C@]23c4c5ccc(OC(=O)CCCCCCCCC(=O)Oc6ccc7c8c6O[C@H]6C(=O)CC[C@@]9(O)[C@@H](C7)N(CC=C)CC[C@]869)c4O[C@H]2C(=O)CC[C@@]3(O)[C@H]1C5 [Compound 4, bis((4R,4aS,7aR,12bS)-3-allyl-4a-hydroxy-7-oxo-2,3,4,4a,5,6,7,7a-octahydro-1H-4,12-methanobenzofuro[3,2-e]isoquinolin-9-yl) decanedioate]	Near zero order for > 7 days	✓ (FIG. 5B)	–
C=CCN1CC[C@]23c4c5ccc(OC(=O)OCC6CCC(COC(=O)Oc7ccc8c9c7O[C@H]7C(=O)CC[C@@]%10(O)[C@@H](C8)N(CC=C)CC[C@]97%10)CC6)c4O[C@H]2C(=O)CC[C@@]3(O)[C@H]1C5 (stereo partly drawn) [Compound 5, bis((4R,4aS,7aR,12bS)-3-allyl-4a-hydroxy-7-oxo-2,3,4,4a,5,6,7,7a-octahydro-1H-4,12-methanobenzofuro[3,2-e]isoquinolin-9-yl) (cyclohexane-1,4-diylbis(methylene)) bis(carbonate)]	Near zero order for > 7 days	–	–
O=C(CCCCCCCCC(=O)Oc1ccc2c3c1O[C@H]1C(=O)CC[C@@]4(O)[C@@H](C2)N(CC2CC2)CC[C@]314)Oc1ccc2c3c1O[C@H]1C(=O)CC[C@@]4(O)[C@@H](C2)N(CC2CC2)CC[C@]314 [Compound 6, bis((4R,4aS,7aR,12bS)-3-(cyclopropylmethyl)-4a-hydroxy-7-oxo-2,3,4,4a,5,6,7,7a-octahydro-1H-4,12-methanobenzofuro[3,2-e]isoquinolin-9-yl) decanedioate]	Near zero order for > 7 days	✓ (FIG. 7B)	–
O=C(Oc1ccc2c3c1O[C@H]1C(=O)CC[C@@]4(O)[C@@H](C2)N(CC2CC2)CC[C@]314)C1CCC(C(=O)Oc2ccc3c4c2O[C@H]2C(=O)CC[C@@]5(O)[C@@H](C3)N(CC3CC3)CC[C@]425)CC1 (stereo partly drawn) [Compound 7, bis((4R,4aS,7aR,12bS)-3-(cyclopropylmethyl)-4a-hydroxy-7-oxo-2,3,4,4a,5,6,7,7a-octahydro-1H-4,12-methanobenzofuro[3,2-e]isoquinolin-9-yl) cyclohexane-1,4-dicarboxylate]	Near zero order for > 7 days	–	–
O=C(Oc1ccc2c3c1O[C@H]1C(=O)CC[C@@]4(O)[C@@H](C2)N(CC2CC2)CC[C@]314)c1ccc(C(=O)Oc2ccc3c4c2O[C@H]2C(=O)CC[C@@]5(O)[C@@H](C3)N(CC3CC3)CC[C@]425)cc1 [Compound 8, bis((4R,4aS,7aR,12bS)-3-(cyclopropylmethyl)-4a-hydroxy-7-oxo-2,3,4,4a,5,6,7,7a-octahydro-1H-4,12-methanobenzofuro[3,2-e]isoquinolin-9-yl) terephthalate]	–	–	did not form a heat processed pellet
O=C(CCCCCCCCCCCCC(=O)Oc1ccc2c3c1O[C@H]1C(=O)CC[C@@]4(O)[C@@H](C2)N(CC2CC2)CC[C@]314)Oc1ccc2c3c1O[C@H]1C(=O)CC[C@@]4(O)[C@@H](C2)N(CC2CC2)CC[C@]314 [Compound 9, bis((4R,4aS,7aR,12bS)-3-(cyclopropylmethyl)-4a-hydroxy-7-oxo-2,3,4,4a,5,6,7,7a-octahydro-1H-4,12-methanobenzofuro[3,2-e]isoquinolin-9-yl) tetradecanedioate]	Near zero order for > 7 days	✓ (FIG. 10B)	–
CCC(C)(CC(=O)Oc1ccc2c3c1O[C@H]1C(=O)CC[C@@]4(O)[C@@H](C2)N(CC2CC2)CC[C@]314)CC(=O)Oc1ccc2c3c1O[C@H]1C(=O)CC[C@@]4(O)[C@@H](C2)N(CC2CC2)CC[C@]314 [Compound 10, bis((4R,4aS,7aR,12bS)-3-(cyclopropylmethyl)-4a-hydroxy-7-oxo-2,3,4,4a,5,6,7,7a-octohydro-1H-4,12-methanobenzofuro[3,2-e]isoquinolin-9-yl) 3-ethyl-3-methylpentonedioate]	Near zero order for > 7 days	✓ (FIG. 11B)	–
O=C(OCCCCCCOC(=O)Oc1ccc2c3c1O[C@H]1C(=O)CC[C@@]4(O)[C@@H](C2)N(CC2CC2)CC[C@]314)Oc1ccc2c3c1O[C@H]1C(=O)CC[C@@]4(O)[C@@H](C2)N(CC2CC2)CC[C@]314 [Compound 11, bis((4R,4aS,7aR,12bS)-3-(cyclopropylmethyl)-4a-hydroxy-7-oxo-2,3,4,4a,5,6,7,7a-octohydro-1H-4,12-methanobenzofuro[3,2-e]isoquinolin-9-yl) hexane-1,6-diyl bis(carbonate)]	Near zero order for > 7 days	✓ (FIG. 12B)	–
O=C(OCC1CCC(COC(=O)Oc2ccc3c4c2O[C@H]2C(=O)CC[C@@]5(O)[C@@H](C3)N(CC3CC3)CC[C@]425)CC1)Oc1ccc2c3c1O[C@H]1C(=O)CC[C@@]4(O)[C@@H](C2)N(CC2CC2)CC[C@]314 (stereo partly drawn) [Compound 12, cyclohexane-1,4-diylbis(methylene) bis((4R,4aS,7aR,12bS)-3-(cyclopropylmethyl)-4a-hydroxy-7-oxo-2,3,4,4a,5,6,7,7a-octohydro-1H-4,12-methanobenzofuro[3,2-e]isoquinolin-9-yl) bis(carbonate)]	Near zero order for > 7 days	–	–
COc1ccc2cc([C@H](C)C(=O)OCC3CCC(COC(=O)[C@@H](C)c4ccc5cc(OC)ccc5c4)CC3)ccc2c1 (stereo partly drawn) [Compound 16, cyclohexane-1,4-diylbis(methylene) (2S,2S)-bis(2-(6-methoxynaphthalen-2-yl)proponoote)]	–	–	deformed during the process of removal from the mold
CCN[C@H]1C[C@H](C)S(=O)(=O)c2sc(S(=O)(=O)NC(=O)OCCCCCCCCOC(=O)NS(=O)(=O)c3cc4c(s3)S(=O)(=O)[C@@H](C)C[C@@H]4NCC)cc21 [Compound 22, 8-(((((4S,6S)-4-(ethylamino)-6-methyl-7,7-dioxido-5,6-dihydro-4H-thieno[2,3-b]thiopyron-2-yl)sulfonyl)carbamoyl)oxy)octyl (((4S,6S)-4-(ethylamino)-6-methyl-7,7-dioxido-5,6-dihydro-4H-thieno[2,3-b]thiopyron-2-yl)sulfonyl)carbomate]	–	–	Neither compound formed a viscous liquid that could be pressed into a pellet
